“And” between values parts separate entries of the source, which are not always exact repeats. Equal values may be shown once. Marks after values point to notes of the source that are not given here.
What was measured:
methanogens = experiment: Enteric methanogen counts; details: in vivo
[1] = Blood methaemoglobin in cows supplemented with nitrate and sulphate; assay type: in vivo
Method: The experiment was a randomized block design, with 4 animals per block and different sulphate doses as treatments. Animals were blocked by milk yield and subsequently within a block randomly allotted to one of four dietary treatments: NO3, NO3+low SO4, NO3+medium SO4, NO3+high SO4.
The dietary additives were included in the premix (table 5). At feeding, the premixes were delivered to cows as part of a Total Mixed Ration. Water was freely available during the experiment.
Blood was sampled 3 h post-feeding twice a week throughout the experiment to closely monitor the concentration of methaemoglobin. Blood was collected into evacuated tubes containing heparin, plunged immediately into ice-cold water and stored in a refrigerator at 4 C. At the end of each sampling day, samples were dispatched for analysis and were analyzed the next day.

[2] = cited from earlier work
rumen microbes = experiment: In vitro rumen fermentation simulation; assay type: cell-based, cow
Method: Feed used in rumen simulation was 1 gram of dry matter and composed of grass silage (0.5 g dry matter) and commercial compound feed, 0.5 g dry matter. The treatments were as indicate in the following table: […] All the treatments were run in quadruplicates, the total number of simulation vessels being 72. […] Finally, 2 ml of fresh, strained rumen fluid was added in the serum bottles, the final volume being 40 ml. This inoculation started the actual rumen simulation. Inoculation time for each vessel was registered and taken into account when sampling and stopping the fermentation. Rumen fermentation simulation was continued for 12 hours at 37° C. […] These samples were analysed for methane to see the effect of treatments on the total methane produced by rumen bacteria during the 12 hours. The analysis was performed by gas chromatography using flame ionisation detector and pure methane and ethane as standards. NO3 and NO2 were analysed from all simulation vessels at 0, 2, 4 and 12 hours. […] NH4 was analysed from all simulation vessels at 0, 2, 4 and 12 hours. The method was colorimetric and based on phenol-hypochlorite reaction. Statistical analysis consisted of two-tailed t-tests for all measured parameters. The tests were performed against the treatment with […] and MgSO4 amendment (treatments 2 and 17). t-test was chosen to let the individual treatments be independent of the other treatments tested simultaneously.

[3] = Feed intake and growth during the 4-week adaptation to dietary nitrate and sulphate; assay type: in vivo, male Texel Cross lambs; details: for Feed intake: main effect, additive in diet (Yes); for Effect on body weight gain: adaptation stage; for Body weight (BW) / Body weight gain (BWG) overall / Body weight gain (BWG): main effect (Yes); for Body weight gain (BWG) overall: overall adaptation stage
Text: Feed intake and growth were monitored during the experiment. […] The Animal Care and Use Committee of the Animal Sciences Group, WUR, Lelystad approved the experimental protocol of this experiment. […] During a four-week adaptation phase to the dietary additives, animals were housed in individual calf hutches to allow individual feeding. Sheep were weighed weekly to monitor growth during the entire experiment. […] Animals were blocked by weight and subsequently within a block randomly allotted to one of four dietary treatments: CON, NO3, SO4 or NO3+SO4. […] At feeding, the premixes were hand-mixed into the diets. Water was freely available during the experiment. […] Before morning feeding, orts were removed from the feed bins and weighed to determine voluntary feed intake. During the week in the respiration chambers, feed availability was restricted to 95% of the feed consumed by the animal consuming the least feed within a block in the week prior to housing in the respiration chambers. Feed restriction was applied to avoid interactions between the effect of the additives on DMI and the effect on methane production. […] Limestone was added to the control diet to ensure equal Ca-intake between treatments. MgO was included in the diet to obtain similar Mg-levels between diets. The volume of the different additions to the diets was different for each treatment, and wood cellulose was used to balance for this.

[4] = Feed intake, CO2/O2 exchange and heat production in respiration chambers; assay type: in vivo, male Texel Cross lambs
Method: After the adaptation period four animals (one block) were housed in indirect respiration calorimetry chambers for a week to determine gaseous exchange. In the following weeks a new block of sheep was introduced to the chambers each week. Each respiration chamber housed an individual sheep. The respiration calorimetry chambers used are described in detail in […] et al. (1987). […] Net production or consumption of these gases was calculated from the difference in concentrations between in and outgoing air multiplied by air flow and subsequently recalculated to standard circumstances (0° C., 101 kPa, no water vapour). […] Before morning feeding, orts were removed from the feed bins and weighed to determine voluntary feed intake. During the week in the respiration chambers, feed availability was restricted to 95% of the feed consumed by the animal consuming the least feed within a block in the week prior to housing in the respiration chambers. Feed restriction was applied to avoid interactions between the effect of the additives on DMI and the effect on methane production.

[5] = Methemoglobin content of blood during adaptation period
Method: Blood was sampled at d2, d8, d15, d22 and d28 at 1, 3 and 5 h post-feeding. […] Blood samples were taken in heparin containing collection tubes (Vacutainers) and stored in the refrigerator directly after sampling. At the end of the sampling day, samples were dispatched for analyses and were analyzed the next day.

[6] = test system: methane emissions from enteric fermentation; experiment: Methane production in indirect respiration calorimetry chambers; assay type: in vivo, male Texel Cross lambs; details: for Actual decrease in methane production as CH4 mass: CH4=0.714 g/l; for Methane production rate over 24 h versus control: fed once daily, nitrate: immediately after feeding, SO4: entire 24 h-period; for Actual decrease in methane production / Reduction in daily methane production: respiration chambers; for Actual decrease in methane production: 24.9 g NO3 or 27.0 g SO4 consumed per day; for Reduction in daily methane production: addition to the diet
Text: Feed intake and growth were monitored during the experiment. […] After the adaptation period four animals (one block) were housed in indirect respiration calorimetry chambers for a week to determine gaseous exchange. In the following weeks a new block of sheep was introduced to the chambers each week. Each respiration chamber housed an individual sheep. The respiration calorimetry chambers used are described in detail in […] et al. (1987). […] Net production or consumption of these gases was calculated from the difference in concentrations between in and outgoing air multiplied by air flow and subsequently recalculated to standard circumstances (0° C., 101 kPa, no water vapour). […] Animals were blocked by weight and subsequently within a block randomly allotted to one of four dietary treatments: CON, NO3, SO4 or NO3+SO4. During the adaptation phase, sheep were introduced to the experimental premixes in steps of 25% per week. […] Before morning feeding, orts were removed from the feed bins and weighed to determine voluntary feed intake. During the week in the respiration chambers, feed availability was restricted to 95% of the feed consumed by the animal consuming the least feed within a block in the week prior to housing in the respiration chambers. Feed restriction was applied to avoid interactions between the effect of the additives on DMI and the effect on methane production.

| Compound | effect on enteric methanogen counts (methanogens) | Feed intake ([3]; Week 1 of adaptation) | Feed intake ([3]; Week 2 of adaptation) | Feed intake ([3]; Week 3 of adaptation) | Feed intake ([3]; Week 4 of adaptation) | Effect on body weight gain [3] | Body weight (BW) ([3]; day 0) | Body weight (BW) ([3]; day 7) | Body weight (BW) ([3]; day 14) | Body weight (BW) ([3]; day 21) | Body weight (BW) ([3]; day 28) | Body weight gain (BWG) overall [3] | Body weight gain (BWG) ([3]; week 1) | Body weight gain (BWG) ([3]; week 2) | Body weight gain (BWG) ([3]; week 3) | Body weight gain (BWG) ([3]; week 4) | Actual decrease in methane production as CH4 mass [6] | Methane production rate over 24 h versus control [6] | Actual decrease in methane production [6] | Reduction in daily methane production [6] | also measured |
| --- | --- | --- | --- | --- | --- | --- | --- | --- | --- | --- | --- | --- | --- | --- | --- | --- | --- | --- | --- | --- | --- |
| 5Ca(NO3)2•NH4NO3•10H2O [Nitrate] | reduce enteric methanogen counts | 2686 g/lamb/day | 2591 g/lamb/day | 2526 g/lamb/day | 2411 g/lamb/day | did not affect body weight gain | 43.0 kg/lamb | 43.6 kg/lamb | 44.7 kg/lamb | 45.2 kg/lamb | 45.5 kg/lamb | 2.46 kg/lamb/week | 0.54 kg/lamb/week | 1.08 kg/lamb/week | 0.59 kg/lamb/week | 0.25 kg/lamb/week | 5.8 g | remained at a far lower level | 8.1 L | 34% | rise in blood methaemoglobin ([1]; 100% inclusion rate of nitrate): more pronounced; Blood methaemoglobin ([1]; cows, diets with 3% NO3 of DM and increasing SO4 (table 5)): 13.1^a % of haemoglobin; MetHb-levels ([2]; Sar et al. (2004), 0.9 g NO3/kg^0.75 of BW intraruminally, no adaptation): 18.4 % of Hb; suppression of absolute methane production (rumen microbes; 12-hour simulation (FIG. 5A)): ~80%; total produced methane (rumen microbes; 12-hour simulation, 14 mM nitrate): 1.5 mL; residual concentration of ammonium (rumen microbes; 12 hours, 14 mM nitrate added (FIG. 8C)): 18 mM; Feed intake reduction ([3]; period beyond week 1 (more than 25% of final inclusion rate)): approximately 9%; Oxygen consumption lower than control ([4]; directly after feeding at 8 AM): 10-18%; MetHb-levels estimated from oxygen consumption ([4]; regression equation of Takahashi et al., 1998): approximately 5%; Reduction in oxygen consumption ([4]; respiration chambers, daily): 6%; blood MetHb-content ([5]; 75% of the inclusion rate, 3 h post feeding, one sheep tested positive): 3 % of Hb; MetHb-values ([5]; 100% inclusion rate for one week (d28), 3 h post-feeding, two individual sheep tested positive, listed as NO3): 7 % of Hb and 3 % of Hb; MetHb-levels, highest observed ([5]; whole experiment, detection limit 2% of Hb): ≤ 7 % of Hb |
| O=[N+]([O-])[O-].[Na+] [NaNO3, reference compound] | – | – | – | – | – | – | – | – | – | – | – | – | – | – | – | – | – | – | – | – | Concentrations of MetHb ([2]; Takahashi et al., 1998, 1.5 g/kg BW^0.75 into the rumen): over 30% |
| O=S(=O)([O-])[O-].[Mg+2] [Sulphate, MgSO4 (anhydrous)] | does not | 2724 g/lamb/day | 2770 g/lamb/day | 2618 g/lamb/day | 2457 g/lamb/day | did not affect body weight gain | 42.4 kg/lamb | 43.1 kg/lamb | 44.3 kg/lamb | 44.7 kg/lamb | 44.8 kg/lamb | 2.34 kg/lamb/week | 0.70 kg/lamb/week | 1.20 kg/lamb/week | 0.38 kg/lamb/week | 0.06 kg/lamb/week | 2.9 g | consistently lower than the control treatment | 4 L | 19% | – |
| CC(O)C(=O)O (centres unmarked) [lactic acid, Na-lactate] | – | – | – | – | – | – | – | – | – | – | – | – | – | – | – | – | – | – | – | – | gas production, initial (rumen microbes; first 4 hours, compared to the nitrate enriched treatment (Calcinit + MgSO4)): suppressed; cumulative gas production, later time points (rumen microbes; later time points up to 12 h, compared to Calcinit + MgSO4): continued to suppress gas production dose dependently |
